# Source: patent publication US9199984B2, “Inhibition of enzymes” (CHIESI FARMACEUTICI S.p.A., priority 2012, dated 2015)
# Counter-ions that a name gives are not always drawn.
# Target: T1, human neutrophil elastase (HNE) (Homo sapiens, UniProt P08246)
# T1 construct: purchased Sigma E8140
# T1 sequence (P08246 30-247 limits assumed): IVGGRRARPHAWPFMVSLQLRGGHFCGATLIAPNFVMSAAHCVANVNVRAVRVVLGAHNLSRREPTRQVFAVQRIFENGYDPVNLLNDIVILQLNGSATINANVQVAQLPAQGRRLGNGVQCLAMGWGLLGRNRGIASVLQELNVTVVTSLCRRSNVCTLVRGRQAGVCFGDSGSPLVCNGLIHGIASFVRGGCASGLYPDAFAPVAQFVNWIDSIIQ
# Experiment: HNE enzyme activity assay
# Assay type: biochemical
# Details: human leukocyte elastase, substrate MeOSuc-Ala-Ala-Pro-Val-AMC 100 μM, 25° C. for 30 minutes, fluorescence; read-out: HNE inhibition
# Method: Compounds of the present invention were tested for potency in a human neutrophil elastase (HNE) enzyme activity assay.
# Assays were performed in 96-well plates in a total assay volume of 100 μl. The final concentration of elastase enzyme (human leukocyte elastase, Sigma E8140) was 0.0036 units/well […]. The peptide substrate (MeOSuc-Ala-Ala-Pro-Val-AMC, Calbiochem #324740) was used at a final concentration of 100 μM. The final concentration of DMSO was 1% in the assay buffer (0.05M Tris.HCl, 0.1M NaCl, 0.1M CaCl2, 0.0005% brij-35, pH 7.5). The enzymatic reaction was started by addition of the enzyme and incubated at 25° C. for 30 minutes. After incubation, the reaction was stopped by addition of soybean trypsin inhibitor (Sigma T9003) at a final concentration of 50 μg/well. Fluorescence was measured using a Molecular Devices fluorescence plate reader using 380 nm excitation and 460 nm emission wavelengths.
# A dose response to each compound was performed and the effect of compound in each experiment was expressed as a percentage inhibition of the control enzyme fluorescence. Dose response curves were plotted and compound potency (IC50) was determined. Compounds were tested in at least two separate experiments.
row,SMILES,IC50
1,"Cc1c(-c2ccnn2-c2ccc(C#N)cc2)cn2nc(NC(=O)CC[S+](C)[O-])nc2c1-c1cccc(C(F)(F)F)c1 (stereo not drawn) [Example 45, N-[6-[2-(4-Cyano-phenyl)-2H-pyrazol-3-yl]-7-methyl-8-(3-trifluoromethyl-phenyl)[1,2,4]triazolo[1,5-a]pyridin-2-yl]-3-methanesulfinyl-propionamide]",< 20 nM
2,"Cc1c(-c2ccnn2-c2ccc(C#N)cc2)cn2nc(NCCCS(C)(=O)=O)nc2c1-c1cccc(C(F)(F)F)c1 [Example 47, 4-{5-[2-(3-Methanesulfonyl-propylamino)-7-methyl-8-(3-trifluoromethyl-phenyl)-[1,2,4]triazolo[1,5-a]pyridin-6-yl]-pyrazol-1-yl}-benzonitrile]",< 20 nM
3,"Cc1c(-c2ccnn2-c2ccc(C#N)cc2)cn2ccnc2c1-c1cccc(C(F)(F)F)c1 [Example 6, 4-{5-[7-Methyl-8-(3-trifluoromethyl-phenyl)-imidazo[1,2-a]pyridin-6-yl]-pyrazol-1-yl}-benzonitrile]",20 to 100 nM
4,"COc1nc2c(-c3cccc(C(F)(F)F)c3)c(C)c(-c3ccnn3-c3ccc(C#N)cc3)cn2n1 [Example 31, 4-{5-[2-Methoxy-7-methyl-8-(3-trifluoromethyl-phenyl)-[1,2,4]triazolo[1,5-a]pyridin-6-yl]-pyrazol-1-yl}-benzonitrile]",100 to 500 nM
5,CC(=O)Nc1nc2c(-c3cccc(C(F)(F)F)c3)c(C)c(-c3ccccc3-c3ccc(C#N)cc3)cn2n1 [Example 43],< 20 nM
6,"CC(=O)Nc1nc2c(-c3cccc(C(F)(F)F)c3)c(C)c(-c3c(C)cnn3-c3ccc(C#N)cc3)cn2n1 [Example 42, N-[6-[2-(4-Cyano-phenyl)-4-methyl-2H-pyrazol-3-yl]-7-methyl-8-(3-trifluoromethyl-phenyl)-[1,2,4]triazolo[1,5-a]pyridin-2-yl]-acetamide]",< 20 nM
7,"Cc1c(-c2ccnn2-c2ccc(C#N)cc2)cn2nc(NCCC[N+](C)(C)C)nc2c1-c1cccc(C(F)(F)F)c1 [Example 32, {3-[6-[2-(4-Cyano-phenyl)-2H-pyrazol-3-yl]-7-methyl-8-(3-trifluoromethyl-phenyl)-[1,2,4]triazolo[1,5-a]pyridin-2-ylamino]-propyl}-trimethyl-ammonium benzenesulfonate]",< 20 nM
8,"CNC(=O)Cn1nc2c(-c3cccc(C(F)(F)F)c3)c(C)c(-c3ccnn3-c3ccc(C#N)cc3)cn2c1=O [Example 12, 2-[6-[2-(4-Cyano-phenyl)-2H-pyrazol-3-yl]-7-methyl-3-oxo-8-(3-trifluoromethyl-phenyl)-[1,2,4]triazolo[4,3-a]pyridin-2-yl]-N-methyl-acetamide]",100 to 500 nM
9,"Cc1c(-c2ccnn2-c2ccc(C#N)cc2)cn2nc(NC(=O)NC3CCN(C)CC3)nc2c1-c1cccc(C(F)(F)F)c1 [Example 51, (1-Methyl-4-piperidyl)[6-[2-(4-cyano-phenyl)-2H-pyrazol-3-yl]-7-methyl-8-(3-trifluoromethyl-phenyl)-[1,2,4]triazolo[1,5-a]pyridin-2-yl]-urea]",< 20 nM
10,"Cc1nc2c(-c3cccc(C(F)(F)F)c3)c(C)c(-c3ccnn3-c3ccc(C#N)cc3)cn2n1 [Example 4, 4-{5-[2,7-Dimethyl-8-(3-trifluoromethyl-phenyl)-[1,2,4]triazolo[1,5-a]pyridin-6-yl]-pyrazol-1-yl}-benzonitrile]",> 500 nM

# Results, then the compound that gave them:
row,IC50,SMILES
1,< 20 nM,"Cc1c(-c2ccnn2-c2ccc(C#N)cc2)cn2nc(NCc3ccc(S(C)(=O)=O)cc3)nc2c1-c1cccc(C(F)(F)F)c1 [Example 23, 4-{5-[2-(4-Methanesulfonyl-benzylamino)-7-methyl-8-(3-trifluoromethyl-phenyl)-[1,2,4]triazolo[1,5-a]pyridin-6-yl]-pyrazol-1-yl}-benzonitrile]"
2,< 20 nM,"CCNC(=O)Nc1nc2c(-c3cccc(C(F)(F)F)c3)c(C)c(-c3ccnn3-c3ccc(C#N)cc3)cn2n1 [Example 52, 1-[6-[2-(4-Cyano-phenyl)-2H-pyrazol-3-yl]-7-methyl-8-(3-trifluoromethyl-phenyl)-[1,2,4]triazolo[1,5-a]pyridin-2-yl]-3-ethyl-urea]"
3,< 20 nM,"Cc1c(-c2ccnn2-c2ccc(C#N)cc2)cn2c(=O)[nH]nc2c1-c1cccc(C(F)(F)F)c1 [Example 9, 4-{5-[7-Methyl-3-oxo-8-(3-trifluoromethyl-phenyl)-2,3-dihydro-[1,2,4]triazolo[4,3-a]pyridin-6-yl]-pyrazol-1-yl}-benzonitrile]"
4,< 20 nM,"Cc1c(-c2ccnn2-c2ccc(C#N)cc2)cn2nc(NC(=O)OCCC[N+](C)(C)C)nc2c1-c1cccc(C(F)(F)F)c1 [Example 37, {3-[6-[2-(4-Cyano-phenyl)-2H-pyrazol-3-yl]-7-methyl-8-(3-trifluoromethyl-phenyl)-[1,2,4]triazolo[1,5-a]pyridin-2-ylcarbamoyloxy]-propyl}-trimethyl-ammonium formate]"
5,< 20 nM,"Cc1c(-c2ccnn2-c2ccc(C#N)cc2)cn2nc(NCC(C)O)nc2c1-c1cccc(C(F)(F)F)c1 (stereo not drawn) [Example 49, 4-{5-[2-(2-Hydroxy-propylamino)-7-methyl-8-(3-trifluoromethyl-phenyl)-[1,2,4]triazolo[1,5-a]pyridin-6-yl]-pyrazol-1-yl}-benzonitrile]"
6,< 20 nM,"Cc1c(-c2ccnn2-c2ccc(C#N)cc2)cn2nc(NC(=O)NCCC[N+](C)(C)C)nc2c1-c1cccc(C(F)(F)F)c1 [Example 38, (3-{3-[6-[2-(4-Cyano-phenyl)-2H-pyrazol-3-yl]-7-methyl-8-(3-trifluoromethyl-phenyl)-[1,2,4]triazolo[1,5-a]pyridin-2-yl]-ureido}-propyl)-trimethyl-ammonium formate]"
7,< 20 nM,"Cc1c(-c2ccnn2-c2ccc(C#N)cc2S(C)(=O)=O)cn2nc(N)nc2c1-c1cccc(C(F)(F)F)c1 [Example 40, 4-{5-[2-Amino-7-methyl-8-(3-trifluoromethyl-phenyl)-[1,2,4]triazolo[1,5-a]pyridin-6-yl]pyrazol-1-yl}-3-methanesulfonyl-benzonitrile]"
8,100 to 500 nM,"Cc1c(-c2ccnn2-c2ccc(C#N)cc2)cn2c(=O)n(Cc3ccc(S(C)(=O)=O)cc3)nc2c1-c1cccc(C(F)(F)F)c1 [Example 10, 4-{5-[2-(4-Methanesulfonyl-benzyl)-7-methyl-3-oxo-8-(3-trifluoromethyl-phenyl)-2,3-dihydro-[1,2,4]triazolo[4,3-a]pyridin-6-yl]-pyrazol-1-yl}-benzonitrile]"
9,< 20 nM,"CC(=O)Nc1nc2c(-c3cccc(C(F)(F)F)c3)c(C)c(-c3ncnn3-c3ccc(C#N)cc3)cn2n1 [Example 39, N-[6-[2-(4-Cyano-phenyl)-2H-[1,2,4]triazol-3-yl]-7-methyl-8-(3-trifluoromethyl-phenyl)-[1,2,4]triazolo[1,5-a]pyridin-2-yl]-acetamide]"
10,< 20 nM,"Cc1c(-c2ccnn2-c2ccc(C#N)cc2)cn2nc(NCC[N+](C)(C)C)nc2c1-c1cccc(C(F)(F)F)c1 [Example 33, {3-[6-[2-(4-Cyano-phenyl)-2H-pyrazol-3-yl]-7-methyl-8-(3-trifluoromethyl-phenyl)-[1,2,4]triazolo[1,5-a]pyridin-2-ylamino]-ethyl}-trimethyl-ammonium benzenesulfonate]"
11,< 20 nM,"CC(=O)Nc1nc2c(-c3cccc(C(F)(F)F)c3)c(C)c(-c3ccnn3-c3ccc(C#N)cc3F)cn2n1 [Example 41, N-[6-[2-(4-Cyano-2-fluoro-phenyl)-2H-pyrazol-3-yl]-7-methyl-8-(3-trifluoromethyl-phenyl)-[1,2,4]triazolo[1,5-a]pyridin-2-yl]-acetamide]"
